We go through six compounds from PubChem BioAssay (NCI).

Assay in all cases: growth of human tumour cells (NCI), 48 h
Assay [1] concerns DMS 114 small cell lung.
The test system of assay [2] is DU-145 prostate.
In assay [3] the test system is SF-539 CNS.
Assay [4] has as its system SK-OV-3 ovarian.
For assay [5], the system named is SN12C renal.
The test system of assay [6] is T-47D breast.
The subject of assay [7] is SNB-75 CNS.
In assay [8] the test system is LOX IMVI melanoma.
For assay [9], the system named is MCF7 breast.
In assay [10] the test system is NCI/ADR-RES ovarian.

Several values for one entry are separate records, joined by “and”; a condition that tells them apart may be missing. Equal values may be shown once.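 Cells were grown in 96-well plates and exposed to each compound for 48 hours at five concentrations; endpoints were interpolated linearly between bracketing concentrations, or set to the highest concentration if not reached. GI50 is the concentration that inhibits growth by half. At the TGI there is no net growth.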

For `[Cl][Sn]([c]1ccccc1)([c]1ccccc1)[c]1ccccc1`, the GI50 in [1] was 0.0237 µM and 0.0186 µM; in [2], 0.21 µM; in assay [3], 0.25 µM and 0.109 µM and 0.0284 µM; in assay [4], 0.239 µM and 0.178 µM; in assay [5] it was 0.031 µM and 0.0142 µM; in assay [6], 0.171 µM. Also, the TGI in assay [1] was 0.062 µM and 0.102 µM; in assay [2] it was 0.428 µM; in assay [3], 0.642 µM and 0.244 µM and 0.0847 µM; in assay [4], 0.696 µM and 0.335 µM; in assay [5], 0.114 µM and 0.0651 µM; in assay [6], 0.412 µM.
As for `COc1c(O)c(C=O)c2c(O)c(-c3c(C)cc4c(C(C)C)c(OC)c(O)c(C=O)c4c3O)c(C)cc2c1C(C)C`, the TGI was determined as 6.93 µM in assay [1]; 12.8 µM in [3]; 14.2 µM in [4]; 8.45 µM in assay [5]; 9.38 µM in assay [7].
For the compound `C/C=C/c1cc(=O)c([C@@H]2OC(=O)c3cc(OC)cc(OC)c32)co1`, the TGI in assay [1] was 56.6 µM; in assay [3], over 100 µM; in assay [7], 60.3 µM.
`COc1cc2ccc(=O)oc2cc1O`: the TGI is 335 µM in assay [1]; over 625 µM in assay [8]; 476 µM in assay [9]; 277 µM in assay [10]; 201 µM in assay [3]; 509 µM in assay [4]. In addition, the TGI in assay [5] stood at 282 µM; in assay [7], 175 µM.
Regarding `NC(=O)c1cccc([N+](=O)[O-])c1`, the TGI in [1], in [8], in [3], in assay [4], in [5] and in [7] was over 100 µM each time.
On to `O=C1NC(Nc2ccccc2)=NC(C(F)(F)F)(C(F)(F)F)N1`, for which the TGI in assay [2], in assay [8], in assay [9], in [10], in assay [3] and in [4] was over 100 µM in each case. Besides, the TGI in assay [5] was over 100 µM; in [7] it was 87.6 µM; in assay [6], over 100 µM.
